Test results: patent US4684620A, “Cyclic polypeptides having mu-receptor specificity” (Gibson-Stephens Neuropharmaceuticals, Inc., priority 1984, dated 1987)
Positions of bridges follow the written chain, without caps; N, C: chain ends. Non-standard residues stand in square brackets, D forms with d. Residues, ends and D or L forms follow the SMILES beside them. Asu = N[C@@H](CCCCCC(=O)O)C(=O)O; dPhg = N[C@@H](C(=O)O)c1ccccc1; Pen = CC(C)(S)[C@H](N)C(=O)O

Legend:
[1] = Partition coefficient, octanol-water; format: physicochemical; conditions: read-out: Partition Coefficient, Octanol-Water, log P
δ-opiate receptors = target: T1, δ-opiate receptors (Rattus norvegicus, UniProt P33533); experiment: [3H]DADLE receptor binding to rat brain homogenates; conditions: for IC50: 1 nM [3H]DADLE
T1 construct: Adult Sprague-Dawly rats (150-200g) were killed by decapitation; The brain was rapidly removed and homogenized; from tissue; host or cells: rat brain membranes (Sprague-Dawley)
T1 sequence (P33533 whole entry): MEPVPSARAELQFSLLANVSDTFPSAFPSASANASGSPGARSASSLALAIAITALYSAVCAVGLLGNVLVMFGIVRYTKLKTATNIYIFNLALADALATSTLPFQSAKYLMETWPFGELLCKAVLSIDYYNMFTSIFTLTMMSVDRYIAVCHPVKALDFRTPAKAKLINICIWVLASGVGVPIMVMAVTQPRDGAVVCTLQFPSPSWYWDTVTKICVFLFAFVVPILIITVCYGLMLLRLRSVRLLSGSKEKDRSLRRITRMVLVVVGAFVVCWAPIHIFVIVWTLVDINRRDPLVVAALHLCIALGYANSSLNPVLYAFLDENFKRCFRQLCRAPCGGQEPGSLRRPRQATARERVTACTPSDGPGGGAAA
Protocol: (§1) Adult Sprague-Dawly rats (150-200g) were killed by decapitation. The brain was rapidly removed and homogenized (10% wt/vol in 0.32 M sucrose in a glass homogenizer with a motor driven teflon pestle. The homogenate was then centrifuged at 43,000×g for 10 min and the resulting pellet was resuspended in 50 mM Trisma buffer (pH 7.4 at 25° C.) containing 5 mM MgCl2, 2 mg/ml BSA and 20 mg/ml of bacitracin, using a Polytron homogenizer (15 sec, setting 5). The centrifugation and resuspension step was repeated once.
(§2) For all the inhibition studies, rat brain plasma membranes (100 μl ) were incubated at 25° C. for 60 min in a total of 1.0 ml of 50 mM Trisma buffer containing 220,000 dpm ^125 I-CGP 23,996. See Czernik, A. J. and Petrack, G., J. Biol. Chem. 258,5525-5530 (1983) which is herein specifically incorporated by reference. 1 nM [^3 H-]naloxone (42.3 Ci/mmol, New England Nuclear) or 1 nM [^3 H]DADLE ([D-Ala^2, D-Ala^5 ]enkephalin), [^3 H-3'5'-Tyr]DADLE, 43 Ci/mmol, New England Nuclear, and at least nine concentrations of our synthetic analogues. All incubations were done in duplicate and each compound was tested at least five times. The concentration of test compounds was determined by quantitative amino acid analysis or from published molar extinction coefficients. […] The data were analyzed using nonlinear least squares regression analysis.

mu opioid receptor = target: T2, mu opioid receptor (Rattus norvegicus, UniProt P33535); experiment: [3H]naloxone receptor binding to rat brain homogenates; conditions: for IC50: 1 nM [3H]naloxone
T2 construct: Adult Sprague-Dawly rats (150-200g) were killed by decapitation; The brain was rapidly removed and homogenized; from tissue; host or cells: rat brain membranes (Sprague-Dawley)
T2 sequence (P33535 whole entry): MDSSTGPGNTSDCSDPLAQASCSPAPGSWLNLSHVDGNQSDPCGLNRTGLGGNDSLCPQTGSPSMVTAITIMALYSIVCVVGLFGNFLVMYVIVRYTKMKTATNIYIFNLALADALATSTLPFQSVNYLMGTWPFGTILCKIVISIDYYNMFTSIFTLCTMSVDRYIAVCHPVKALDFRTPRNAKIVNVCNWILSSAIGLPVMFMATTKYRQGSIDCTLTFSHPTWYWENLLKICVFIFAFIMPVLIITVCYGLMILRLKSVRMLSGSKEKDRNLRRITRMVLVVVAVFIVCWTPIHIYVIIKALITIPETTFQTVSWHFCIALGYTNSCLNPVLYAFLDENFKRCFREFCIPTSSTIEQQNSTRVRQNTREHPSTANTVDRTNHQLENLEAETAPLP
Protocol: as §1, §2

[2] = target: T3, delta-type opiate receptors (Mus musculus, UniProt P32300); experiment: Mouse vas deferens (MVD) test, electrically stimulated contractions, antagonism of DPDPE
T3 construct: from tissue; host or cells: mouse vas deferens
T3 sequence (P32300 whole entry): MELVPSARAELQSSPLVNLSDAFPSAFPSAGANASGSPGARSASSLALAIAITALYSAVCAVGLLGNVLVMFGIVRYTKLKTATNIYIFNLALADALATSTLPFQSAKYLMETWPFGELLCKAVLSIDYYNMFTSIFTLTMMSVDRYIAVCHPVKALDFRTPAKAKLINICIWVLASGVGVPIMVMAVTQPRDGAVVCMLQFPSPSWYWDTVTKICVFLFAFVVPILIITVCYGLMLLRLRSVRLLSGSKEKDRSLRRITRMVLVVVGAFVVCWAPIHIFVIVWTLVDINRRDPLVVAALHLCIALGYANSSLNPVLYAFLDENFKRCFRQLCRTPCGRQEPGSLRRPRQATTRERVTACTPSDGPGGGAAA
Protocol: (§3) The compounds of the present invention were tested for their ability to inhibit electrically stimulated muscle contractions in the guinea pig ileum (GPI) assay and in the mouse vas deferens (MVD) assay.
The mouse vasa deferentia tests were conducted as follows: vas deferens of male mice were placed in a 60 ml tissue bath and attached to a force transducer. Contractions were induced by electrical stimulation. […] Percent inhibition was calculated.

mu-type opiate receptors = experiment: Guinea pig ileum (GPI) test, electrically stimulated contractions, antagonism of morphiceptin; conditions: morphiceptin alone
Protocol: as §3
The tests in the guinea pig ileum were conducted as follows: strips of longitudinal muscle with adhering myenteric plexus were prepared from nonterminal ilea of guinea pigs and attached to a force transducer in a 60 ml isolated organ bath. Contractions were elicited by electrical stimulation with a Grass S44D stimulator.

SMILES: C[C@@H](O)[C@H](NC(=O)[C@H]1NC(=O)[C@H]([C@@H](C)O)NC(=O)[C@H](CCCCN)NC(=O)[C@@H](Cc2c[nH]c3ccccc23)NC(=O)[C@H](Cc2ccccc2)NC(=O)[C@@H](NC(=O)[C@H](N)Cc2ccccc2)C(C)(C)SSC1(C)C)C(=O)O [Example V]
- logP [1]: 0

SMILES: C[C@@H](O)[C@H](NC(=O)[C@H]1NC(=O)[C@H]([C@@H](C)O)NC(=O)[C@H](CCCCN)NC(=O)[C@@H](Cc2c[nH]c3ccccc23)NC(=O)[C@H](Cc2ccccc2)NC(=O)[C@@H](NC(=O)[C@H](N)Cc2ccccc2)CSSC1(C)C)C(N)=O [drawing 25]
- IC50 (δ-opiate receptors): 1.1 µM
- IC50 (mu opioid receptor): 0.0099 µM

SMILES: C[C@@H](O)[C@@H]1NC(=O)[C@H](Cc2ccc(O)cc2)NC(=O)[C@H]([C@@H](C)O)NC(=O)[C@H](CCCCN)NC(=O)[C@H](Cc2c[nH]c3ccccc23)NC(=O)[C@H](Cc2ccccc2)NC(=O)[C@H](Cc2ccccc2)NC(=O)[C@H](CC(N)=O)NC(=O)[C@H](CCCCN)NC(=O)CCCCC[C@@H](C(=O)O)NC(=O)[C@H](CO)NC1=O [CGP 23,996, des-Ala^1,Gly^2-desamino-Cys3-[Tyr^11]-dicarba^3,14-somatostatin, reference compound] (KNFFWKTYTS[Asu]-OH; lactam N-11)
- IC50 (δ-opiate receptors): > 100 µM
- IC50 (mu opioid receptor): > 100 µM

SMILES: C[C@@H](O)[C@H](NC(=O)[C@@H]1CSSC(C)(C)[C@H](NC(=O)[C@H](N)Cc2ccccc2)C(=O)N[C@@H](Cc2ccccc2)C(=O)N[C@H](Cc2c[nH]c3ccccc23)C(=O)N[C@@H](CCCCN)C(=O)N[C@@H]([C@@H](C)O)C(=O)N1)C(=O)O [drawing 32]
- IC50 (δ-opiate receptors): 38.1 µM
- IC50 (mu opioid receptor): 61 µM

SMILES: C[C@@H](O)[C@H](NC(=O)[C@H]1NC(=O)[C@H]([C@@H](C)O)NC(=O)[C@H](CCCCN)NC(=O)[C@@H](Cc2c[nH]c3ccccc23)NC(=O)[C@H](Cc2ccc(O)cc2)NC(=O)[C@@H](NC(=O)[C@H](N)Cc2ccccc2)CSSC1(C)C)C(=O)O [drawing 26]
- IC50 (δ-opiate receptors): 3.76 µM
- IC50 (mu opioid receptor): 0.293 µM

SMILES: CC(=O)N[C@@H](Cc1ccccc1)C(=O)N[C@H](Cc1c[nH]c2ccccc12)C(=O)N[C@@H](CCCCN)C(=O)N[C@H](C(=O)O)[C@@H](C)O [AcPhe --D-TrpLysThr, reference compound] (Ac-F[dW]KT-OH)
- IC50 (δ-opiate receptors): 5.84 µM
- IC50 (mu opioid receptor): 51.5 µM

SMILES: C[C@@H](O)[C@H](NC(=O)[C@@H]1CSSC(C)(C)[C@H](NC(=O)[C@H](N)Cc2ccccc2)C(=O)N[C@@H](Cc2ccc(O)cc2)C(=O)N[C@H](Cc2c[nH]c3ccccc23)C(=O)N[C@@H](CCCCN)C(=O)N[C@@H]([C@@H](C)O)C(=O)N1)C(=O)O
- IC50 (δ-opiate receptors): 2.56 µM
- IC50 (mu opioid receptor): 0.471 µM

SMILES: C[C@@H](O)[C@H](NC(=O)[C@@H]1CSSC[C@H](NC(=O)[C@H](N)Cc2ccccc2)C(=O)N[C@@H](Cc2ccccc2)C(=O)N[C@H](Cc2c[nH]c3ccccc23)C(=O)N[C@@H](CCCCN)C(=O)N[C@@H]([C@@H](C)O)C(=O)N1)C(=O)O [II]
- logP [1]: -0.77

SMILES: C[C@@H](O)[C@H](NC(=O)[C@H]1NC(=O)[C@H]([C@@H](C)O)NC(=O)[C@H](CCCCN)NC(=O)[C@@H](Cc2c[nH]c3ccccc23)NC(=O)[C@H](Cc2ccccc2)NC(=O)[C@@H](NC(=O)[C@H](N)Cc2ccccc2)C(C)(C)SSC1(C)C)C(=O)O [drawing 30]
- IC50 (δ-opiate receptors): 11.1 µM
- IC50 (mu opioid receptor): 8.27 µM

SMILES: C[C@@H](O)[C@H](NC(=O)[C@@H]1CSSC(C)(C)[C@H](NC(=O)[C@H](N)c2ccccc2)C(=O)N[C@@H](Cc2ccccc2)C(=O)N[C@H](Cc2c[nH]c3ccccc23)C(=O)N[C@@H](CCCCN)C(=O)N[C@@H]([C@@H](C)O)C(=O)N1)C(=O)O [drawing 28] (H-[dPhg][Pen]F[dW]KTCT-OH; disulfide 2-7)
- IC50 (δ-opiate receptors): 13.5 µM
- IC50 (mu opioid receptor): 2.5 µM

SMILES: C[C@@H](O)[C@H](NC(=O)[C@@H]1CSSC(C)(C)[C@H](NC(=O)[C@H](N)c2ccccc2)C(=O)N[C@@H](Cc2ccccc2)C(=O)N[C@H](Cc2c[nH]c3ccccc23)C(=O)N[C@@H](CCCCN)C(=O)N[C@@H]([C@@H](C)O)C(=O)N1)C(=O)O [VIII] (H-[dPhg][Pen]F[dW]KTCT-OH; disulfide 2-7)
- logP [1]: -0.57

SMILES: C[C@@H](O)[C@H](NC(=O)[C@H]1NC(=O)[C@H]([C@@H](C)O)NC(=O)[C@H](CCCCN)NC(=O)[C@@H](Cc2c[nH]c3ccccc23)NC(=O)[C@H](Cc2ccc(O)cc2)NC(=O)[C@@H](NC(=O)[C@H](N)Cc2ccccc2)CSSC1(C)C)C(N)=O [drawing 41]
- Percent inhibition of contractions ([2]; DPDPE 1 nM plus 1000 nM analog): 13 ± 3%
- Percent inhibition of contractions ([2]; DPDPE 3 nM plus 1000 nM analog): 28 ± 4%
- Percent inhibition of contractions ([2]; DPDPE 10 nM plus 1000 nM analog): 48 ± 8%
- Percent inhibition of contractions ([2]; DPDPE 30 nM plus 1000 nM analog): 73 ± 9%
- Percent inhibition of contractions ([2]; DPDPE 100 nM plus 1000 nM analog): 91 ± 5%
- Percent inhibition of contractions ([2]; DPDPE 300 nM plus 1000 nM analog): 97 ± 1%

SMILES: C[C@H](N)C(=O)NCC(=O)N[C@H]1CSSC[C@@H](C(=O)O)NC(=O)[C@H](CO)NC(=O)[C@H]([C@@H](C)O)NC(=O)[C@H](Cc2ccccc2)NC(=O)[C@H]([C@@H](C)O)NC(=O)[C@H](CCCCN)NC(=O)[C@H](Cc2c[nH]c3ccccc23)NC(=O)[C@H](Cc2ccccc2)NC(=O)[C@H](Cc2ccccc2)NC(=O)[C@H](CC(N)=O)NC(=O)[C@H](CCCCN)NC1=O [SOMATOSTATIN, somatostatin, reference compound]
- [3H]DADLE nH (δ-opiate receptors): 1.09
- [3H]Naloxone nH (mu opioid receptor): 1.02

SMILES: C[C@@H](O)[C@H](NC(=O)[C@H]1NC(=O)[C@H]([C@@H](C)O)NC(=O)[C@H](CCCCN)NC(=O)[C@@H](Cc2c[nH]c3ccccc23)NC(=O)[C@H](Cc2ccc(O)cc2)NC(=O)[C@@H](NC(=O)[C@H](N)Cc2ccccc2)CSSC1(C)C)C(N)=O [drawing 24]
- IC50 (δ-opiate receptors): 0.952 µM
- IC50 (mu opioid receptor): 0.0035 µM

SMILES: C[C@@H](O)[C@H](NC(=O)[C@H]1NC(=O)[C@H]([C@@H](C)O)NC(=O)[C@H](CCCCN)NC(=O)[C@@H](Cc2c[nH]c3ccccc23)NC(=O)[C@H](Cc2ccccc2)NC(=O)[C@@H](NC(=O)[C@H](N)Cc2ccccc2)CSSC1(C)C)C(N)=O [VII]
- logP [1]: 0.36

SMILES: C[C@@H](O)[C@H](NC(=O)[C@H]1NC(=O)[C@H]([C@@H](C)O)NC(=O)[C@H](CCCCN)NC(=O)[C@@H](Cc2c[nH]c3ccccc23)NC(=O)[C@H](Cc2ccc(O)cc2)NC(=O)[C@@H](NC(=O)[C@H](N)Cc2ccccc2)CSSC1(C)C)C(N)=O [Example VI]
- logP [1]: -0.2

SMILES: NC(=O)[C@@H]1CCCN1C(=O)[C@H](Cc1ccccc1)NC(=O)[C@@H]1CCCN1C(=O)[C@@H](N)Cc1ccc(O)cc1 [Morphiceptin] (H-YPFP-NH2)
- Percent inhibition of contractions (mu-type opiate receptors; 300 nM): 28 ± 3%
- Percent inhibition of contractions (mu-type opiate receptors; 1000 nM): 58 ± 3%
- Percent inhibition of contractions (mu-type opiate receptors; 3000 nM): 73 ± 4%
- Percent inhibition of contractions (mu-type opiate receptors; 10000 nM): 73 ± 3%

SMILES: C[C@@H](O)[C@H](NC(=O)[C@H]1NC(=O)[C@H]([C@@H](C)O)NC(=O)[C@H](CCCCN)NC(=O)[C@@H](Cc2c[nH]c3ccccc23)NC(=O)[C@H](Cc2ccccc2)NC(=O)[C@@H](NC(=O)[C@H](N)Cc2ccccc2)CSSC1(C)C)C(=O)O [III]
- logP [1]: -0.71

SMILES: C[C@@H](O)[C@H](NC(=O)[C@@H]1CSSC[C@H](NC(=O)[C@H](N)Cc2ccccc2)C(=O)N[C@@H](Cc2ccccc2)C(=O)N[C@H](Cc2c[nH]c3ccccc23)C(=O)N[C@@H](CCCCN)C(=O)N[C@@H]([C@@H](C)O)C(=O)N1)C(=O)O [drawing 31]
- IC50 (δ-opiate receptors): 3.14 µM
- IC50 (mu opioid receptor): 2.58 µM

SMILES: C[C@@H](O)[C@H](NC(=O)[C@@H]1CSSC(C)(C)[C@H](NC(=O)[C@H](N)Cc2ccccc2)C(=O)N[C@@H](Cc2ccccc2)C(=O)N[C@H](Cc2c[nH]c3ccccc23)C(=O)N[C@@H](CCCCN)C(=O)N[C@@H]([C@@H](C)O)C(=O)N1)C(=O)O [IV]
- logP [1]: -0.22

SMILES: C[C@@H](O)[C@H](NC(=O)[C@H]1NC(=O)[C@H]([C@@H](C)O)NC(=O)[C@H](CCCCN)NC(=O)[C@@H](Cc2c[nH]c3ccccc23)NC(=O)[C@H](Cc2ccc(O)cc2)NC(=O)[C@@H](NC(=O)[C@H](N)Cc2ccccc2)CSSC1(C)C)C(=O)O [Example 1]
- logP [1]: 0.7

SMILES: C[C@@H](O)[C@H](NC(=O)[C@H]1NC(=O)[C@H]([C@@H](C)O)NC(=O)[C@H](CCCCN)NC(=O)[C@@H](Cc2c[nH]c3ccccc23)NC(=O)[C@H](Cc2ccccc2)NC(=O)[C@@H](NC(=O)[C@H](N)Cc2ccccc2)CSSC1(C)C)C(=O)O [drawing 27]
- IC50 (δ-opiate receptors): 5.42 µM
- IC50 (mu opioid receptor): 0.926 µM
